# Experimental data published in US6461844B1, “Liver GalNAc-1-phosphate kinase” (The Board of Trustees of the University of Arkansas, priority 1995, dated 2002).
# Entries after “also recorded” stand apart in the source; their conditions may differ.
# What was measured:
# GalNAc kinase [1] = target: T1, GalNAc kinase (Sus scrofa, UniProt A0A287BB25); test: Phosphate donor specificity of GalNAc kinase; assay type: biochemical, pig; parameters: Radioactivity in Sugar-P: unit not given beside the values; details: for Radioactivity in Sugar-P / Specific Activity: nucleotide added at 5 mM
# T1 construct: This enzyme was purified about 1400-fold from the cytosolic fraction of pig kidney; from tissue; host or cells: pig kidney cytosol
# GalNAc kinase [2] = target: T1, GalNAc kinase; test: Divalent cation requirement of GalNAc kinase; assay type: biochemical, pig; details: for stimulation of the kinase: tested at a variety of concentrations; for maximum activity relative to optimum concentrations of Mg++: at optimum cation concentration
# Procedure: FIG. 1 illustrates the effect of various divalent cations on the GalNAc kinase. Various amounts of Mg^++, Mn^++, or Co^++ were added to incubations prepared as indicated below. The amount of GalNAc phosphorylated in each incubation by the purified enzyme was determined as described in the assay conditions.
# (§1) GalNAc kinase activity was assayed in incubation mixtures of 200 μl containing the following components: [^3H]GalNAc (10,000 cpm), 1 μmole of ATP, 2 μmoles of MgCl2, 20 μmoles of Tris-HCl buffer, pH 7.5, and various amounts of the enzyme preparations to be assayed. Following an incubation for the appropriate time, the reaction was stopped by heating at 100° C. for 5 min., and the incubation mixture was applied to a column of DE-52. The column was washed with at least 5 column volumes of 10 mM (NH4)HCO3 buffer to remove unbound material, and then GalNAc phosphate was eluted with 500 mM ammonium bicarbonate. Aliquots of the wash and eluent were removed and assayed for their radioactive content by scintillation counting.
# The addition of Mg^++ greatly stimulated the activity, and maximum activity occurred at 6 mM Mg^++. Other divalent cations, such as Mn^++ and Co^++ were also somewhat stimulatory, but much less so than Mg^++.
# yeast galactokinase = target: T2, yeast galactokinase (Saccharomyces cerevisiae, UniProt P04385); test: Sugar specificity of yeast galactokinase; assay type: biochemical; details: for Radioactivity Incorporated (Δ cpm): minus 0 ul value
# T2 construct: purchased Sigma Chemical Co
# T2 sequence (P04385 1-528): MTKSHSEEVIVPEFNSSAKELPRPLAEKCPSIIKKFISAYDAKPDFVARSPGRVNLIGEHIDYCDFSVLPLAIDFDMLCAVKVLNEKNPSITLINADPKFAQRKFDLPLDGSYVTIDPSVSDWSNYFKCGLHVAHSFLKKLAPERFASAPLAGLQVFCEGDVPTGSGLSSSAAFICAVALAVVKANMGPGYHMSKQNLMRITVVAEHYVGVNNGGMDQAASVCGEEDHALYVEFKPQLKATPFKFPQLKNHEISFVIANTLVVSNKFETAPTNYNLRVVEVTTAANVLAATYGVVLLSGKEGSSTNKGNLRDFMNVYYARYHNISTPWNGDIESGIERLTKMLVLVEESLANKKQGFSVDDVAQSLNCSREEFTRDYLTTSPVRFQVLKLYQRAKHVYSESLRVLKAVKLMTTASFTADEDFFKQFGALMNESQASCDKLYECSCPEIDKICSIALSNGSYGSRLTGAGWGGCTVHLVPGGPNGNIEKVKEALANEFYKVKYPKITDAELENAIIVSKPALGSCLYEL
# Text: Galactokinase is an enzyme known to phosphorylate galactose in the one position. […] The specificity of the galactokinase and the GalNAc kinase indicate that they are two different enzymes.
# GalNAc kinase [3] = target: T1, GalNAc kinase; test: Sugar specificity of GalNAc kinase; assay type: biochemical, pig; details: for Radioactivity Incorp.: labeled sugars of same specific activity; for activity as phosphate acceptor: purified kinase; for activity as % of the activity observed with GalNAc: sugar as substrate
# Procedure: as §1
# A variety of sugars were tested and in each case the specific radioactivity of the labeled sugar was adjusted with unlabeled material so that all were of the same specific activity in order to allow a true comparison of their ability to serve as substrates for the kinase. The amount of radioactivity that bound to DE-52 and was eluted with (NH4)HCO3 was taken as a measure of phosphorylation by the enzyme.
# GalNAc kinase [4] = target: T1, GalNAc kinase; test: Effect of sulfhydryl reagents on GalNAc kinase activity; assay type: biochemical, pig; details: for Activity (cpm in Sugar-P): control 8700
# Procedure: as §1
# In order to determine whether sulfhydryl groups are necessary for catalytic activity, the effects of various compounds known to react with and inactivate sulfhydryl groups, were examined on the kinase activity.
# T1 sequence (A0A287BB25 1-458): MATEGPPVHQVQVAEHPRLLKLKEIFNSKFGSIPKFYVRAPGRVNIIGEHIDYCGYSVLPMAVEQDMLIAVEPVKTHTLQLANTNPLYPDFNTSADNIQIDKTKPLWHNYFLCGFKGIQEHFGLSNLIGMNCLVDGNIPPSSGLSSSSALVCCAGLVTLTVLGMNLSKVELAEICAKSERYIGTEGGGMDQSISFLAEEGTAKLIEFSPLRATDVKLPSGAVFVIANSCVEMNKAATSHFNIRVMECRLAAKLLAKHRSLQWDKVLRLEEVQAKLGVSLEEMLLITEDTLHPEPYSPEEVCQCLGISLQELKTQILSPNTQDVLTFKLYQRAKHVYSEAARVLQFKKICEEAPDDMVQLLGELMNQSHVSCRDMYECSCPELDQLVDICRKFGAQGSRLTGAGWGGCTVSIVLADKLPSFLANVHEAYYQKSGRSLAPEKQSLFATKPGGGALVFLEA
smiles,measurement,setting,value
Nc1ncnc2c1ncn2[C@@H]1O[C@H](COP(=O)(O)OP(=O)(O)O)[C@@H](O)[C@H]1O [ADP],activity as phosphate donor,GalNAc kinase [1],only slightly above background levels
same,Radioactivity in Sugar-P,GalNAc kinase [1],260
same,Specific Activity,GalNAc kinase [1],4.0 nmol/mg
Nc1ccn([C@@H]2O[C@H](COP(=O)(O)OP(=O)(O)O)[C@@H](O)[C@H]2O)c(=O)n1 [CDP],activity as phosphate donor,GalNAc kinase [1],only slightly above background levels
same,Radioactivity in Sugar-P,GalNAc kinase [1],490
same,Specific Activity,GalNAc kinase [1],7.6 nmol/mg
Nc1ccn([C@@H]2O[C@H](COP(=O)(O)OP(=O)(O)OP(=O)(O)O)[C@@H](O)[C@H]2O)c(=O)n1 [CTP],activity as phosphate donor,GalNAc kinase [1],only slightly above background levels
same,Radioactivity in Sugar-P,GalNAc kinase [1],370
same,Specific Activity,GalNAc kinase [1],5.8 nmol/mg
[Ca+2] [Ca^++],stimulation of the kinase,GalNAc kinase [2],inactive
[Co+2] [Co^++],cation concentration for maximum (optimum) activity,GalNAc kinase [2],10 mM
same,maximum activity relative to optimum concentrations of Mg++,GalNAc kinase [2],about 50%
[Cu+2] [Cu^++],stimulation of the kinase,GalNAc kinase [2],inactive
[Fe+3] [Fe^+++],stimulation of the kinase,GalNAc kinase [2],inactive
Nc1nc2c(ncn2[C@@H]2O[C@H](COP(=O)(O)OP(=O)(O)O)[C@@H](O)[C@H]2O)c(=O)[nH]1 [GDP],Radioactivity in Sugar-P,GalNAc kinase [1],10
same,Specific Activity,GalNAc kinase [1],0.1 nmol/mg
Nc1nc2c(ncn2[C@@H]2O[C@H](COP(=O)(O)OP(=O)(O)OP(=O)(O)O)[C@@H](O)[C@H]2O)c(=O)[nH]1 [GTP],activity as phosphate donor,GalNAc kinase [1],only slightly above background levels
same,Radioactivity in Sugar-P,GalNAc kinase [1],300
same,Specific Activity,GalNAc kinase [1],4.7 nmol/mg
"O=C[C@H](O)[C@@H](O)[C@@H](O)[C@H](O)CO [Gal, galactose]",activity as substrate of yeast galactokinase,yeast galactokinase,very active
same,Radioactivity Incorporated,yeast galactokinase; 2 ul enzyme,6900 cpm
same,Radioactivity Incorporated (Δ cpm),yeast galactokinase; 2 ul enzyme,6835 cpm
same,Radioactivity Incorporated,yeast galactokinase; 4 ul enzyme,7530 cpm
same,Radioactivity Incorporated (Δ cpm),yeast galactokinase; 4 ul enzyme,7465 cpm
same,Radioactivity Incorp.,GalNAc kinase [3]; 4 μl enzyme,301 cpm
same,Radioactivity Incorp.,GalNAc kinase [3]; 8 μl enzyme,442 cpm
same,activity as phosphate acceptor,GalNAc kinase [3],inactive
same,activity as % of the activity observed with GalNAc,GalNAc kinase [3],1%
"N[C@H]1C(O)O[C@H](CO)[C@H](O)[C@@H]1O (stereo partly drawn) [GalN, galactosamine]",activity as substrate of yeast galactokinase,yeast galactokinase,slight activity
same,Radioactivity Incorporated,yeast galactokinase; 2 ul enzyme,300 cpm
same,Radioactivity Incorporated (Δ cpm),yeast galactokinase; 2 ul enzyme,173 cpm
same,Radioactivity Incorporated,yeast galactokinase; 4 ul enzyme,440 cpm
same,Radioactivity Incorp.,GalNAc kinase [3]; 4 μl enzyme,449 cpm
same,Radioactivity Incorp.,GalNAc kinase [3]; 8 μl enzyme,468 cpm
same,activity as phosphate acceptor,GalNAc kinase [3],inactive
same,activity as % of the activity observed with GalNAc,GalNAc kinase [3],1%
"CC(=O)N[C@H]1C(O)O[C@H](CO)[C@H](O)[C@@H]1O (stereo partly drawn) [GalNAc, N-acetylgalactosamine]",activity as substrate of yeast galactokinase,yeast galactokinase,no phosphorylation
same,Radioactivity Incorporated,yeast galactokinase; 2 ul enzyme,37 cpm
same,Radioactivity Incorporated (Δ cpm),yeast galactokinase; 2 ul enzyme,0 cpm
same,Radioactivity Incorporated,yeast galactokinase; 4 ul enzyme,83 cpm
same,Radioactivity Incorporated (Δ cpm),yeast galactokinase; 4 ul enzyme,11 cpm
same,Radioactivity Incorp.,GalNAc kinase [3]; 4 μl enzyme,"14,094 cpm"
same,Radioactivity Incorp.,GalNAc kinase [3]; 8 μl enzyme,"18,448 cpm"
"N[C@H]1C(O)O[C@H](CO)[C@@H](O)[C@@H]1O (stereo partly drawn) [GlcN, glucosamine]",Radioactivity Incorporated,yeast galactokinase; 2 ul enzyme,135 cpm
same,Radioactivity Incorporated (Δ cpm),yeast galactokinase; 2 ul enzyme,0 cpm
same,Radioactivity Incorporated,yeast galactokinase; 4 ul enzyme,150 cpm
same,Radioactivity Incorporated (Δ cpm),yeast galactokinase; 4 ul enzyme,0 cpm
same,Radioactivity Incorp.,GalNAc kinase [3]; 4 μl enzyme,189 cpm
same,Radioactivity Incorp.,GalNAc kinase [3]; 8 μl enzyme,206 cpm
same,activity as phosphate acceptor,GalNAc kinase [3],inactive
"CC(=O)N[C@H]1C(O)O[C@H](CO)[C@@H](O)[C@@H]1O (stereo partly drawn) [GlcNAc, N-acetylglucosamine]",Radioactivity Incorporated,yeast galactokinase; 2 ul enzyme,133 cpm
same,Radioactivity Incorporated (Δ cpm),yeast galactokinase; 2 ul enzyme,60 cpm
same,Radioactivity Incorporated,yeast galactokinase; 4 ul enzyme,84 cpm
same,Radioactivity Incorporated (Δ cpm),yeast galactokinase; 4 ul enzyme,10 cpm
same,Radioactivity Incorp.,GalNAc kinase [3]; 4 μl enzyme,135 cpm
same,Radioactivity Incorp.,GalNAc kinase [3]; 8 μl enzyme,147 cpm
same,activity as phosphate acceptor,GalNAc kinase [3],inactive
"NC(=O)CI [IAA, iodoacetamide]",concentration at which effective as an inhibitor,GalNAc kinase [4],above 1 mM
same,Activity (cpm in Sugar-P),GalNAc kinase [4]; inhibitor 0.1 mM,8260 cpm
same,Activity (cpm in Sugar-P),GalNAc kinase [4]; inhibitor 0.5 mM,7660 cpm
same,Activity (cpm in Sugar-P),GalNAc kinase [4]; inhibitor 1 mM,5490 cpm
same,Activity (cpm in Sugar-P),GalNAc kinase [4]; inhibitor 2 mM,2170 cpm
same,Activity (cpm in Sugar-P),GalNAc kinase [4]; inhibitor 4 mM,658 cpm
O=c1[nH]cnc2c1ncn2[C@@H]1O[C@H](COP(=O)(O)OP(=O)(O)OP(=O)(O)O)[C@@H](O)[C@H]1O [ITP],activity as phosphate donor,GalNAc kinase [1],slight activity; also recorded: some activity
same,Radioactivity in Sugar-P,GalNAc kinase [1],900
same,Specific Activity,GalNAc kinase [1],14.1 nmol/mg
"CC(=O)N[C@@H]1C(O)O[C@H](CO)[C@@H](O)[C@@H]1O (stereo partly drawn) [ManNAc, N-acetylmannosamine]",Radioactivity Incorp.,GalNAc kinase [3]; 4 μl enzyme,475 cpm
same,Radioactivity Incorp.,GalNAc kinase [3]; 8 μl enzyme,89 cpm
same,activity as phosphate acceptor,GalNAc kinase [3],inactive
[Mn+2] [Mn^++],cation concentration for maximum (optimum) activity,GalNAc kinase [2],2 to 8 mM
same,maximum activity relative to optimum concentrations of Mg++,GalNAc kinase [2],about 50%
[Mo+2] [Mo^++],stimulation of the kinase,GalNAc kinase [2],inactive
"CCN1C(=O)C=CC1=O [NEM, N-ethylmaleimide]",inhibition at 500 µM,"GalNAc kinase [4]; 0.5 mM, read-out: inhibition of enzymatic activity",90%
same,Activity (cpm in Sugar-P),GalNAc kinase [4]; inhibitor 0.1 mM,9050 cpm
same,Activity (cpm in Sugar-P),GalNAc kinase [4]; inhibitor 0.5 mM,805 cpm
same,Activity (cpm in Sugar-P),GalNAc kinase [4]; inhibitor 1 mM,40 cpm
same,Activity (cpm in Sugar-P),GalNAc kinase [4]; inhibitor 2 mM,0 cpm
same,Activity (cpm in Sugar-P),GalNAc kinase [4]; inhibitor 4 mM,0 cpm
[Ni+2] [Ni^++],stimulation of the kinase,GalNAc kinase [2],inactive
O=c1ccn([C@@H]2O[C@H](COP(=O)(O)OP(=O)(O)O)[C@@H](O)[C@H]2O)c(=O)[nH]1 [UDP],Radioactivity in Sugar-P,GalNAc kinase [1],30
same,Specific Activity,GalNAc kinase [1],0.5 nmol/mg
O=c1ccn([C@@H]2O[C@H](COP(=O)(O)OP(=O)(O)OP(=O)(O)O)[C@@H](O)[C@H]2O)c(=O)[nH]1 [UTP],Radioactivity in Sugar-P,GalNAc kinase [1],180
same,Specific Activity,GalNAc kinase [1],2.8 nmol/mg
[Zn+2] [Zn^++],stimulation of the kinase,GalNAc kinase [2],inactive
CC(=O)OP(=O)(O)O [acetylphosphate],activity as phosphate donor,GalNAc kinase [1],No activity
"O=C(O)c1cc[c]([Hg][Cl])cc1 [pCMB, p-chloromercuribenzoate]",inhibition of enzymatic activity,GalNAc kinase [4]; 0.02 mM,over 70%
same,inhibition of enzymatic activity,GalNAc kinase [4]; 0.04 mM,complete inhibition
same,Activity (cpm in Sugar-P),GalNAc kinase [4]; inhibitor 0.02 mM,2660 cpm
same,Activity (cpm in Sugar-P),GalNAc kinase [4]; inhibitor 0.04 mM,250 cpm
same,Activity (cpm in Sugar-P),GalNAc kinase [4]; inhibitor 0.06 mM,30 cpm
same,Activity (cpm in Sugar-P),GalNAc kinase [4]; inhibitor 0.1 mM,20 cpm
same,Activity (cpm in Sugar-P),GalNAc kinase [4]; inhibitor 0.25 mM,50 cpm
C=C(OP(=O)(O)O)C(=O)O [phosphoenolpyruvate],activity as phosphate donor,GalNAc kinase [1],No activity
